In publication PMC6407913, “DREADD Agonist 21 Is an Effective Agonist for Muscarinic-Based DREADDs in Vitro and in Vivo” (ACS Pharmacology & Translational Science, 2018):
Several values for one entry are separate records, joined by “and”; a condition that tells them apart may be missing. Identical values can stand only once.

Legend:
Assay type in all cases: cell-based
[1] = biological target: 318 nonolfactory human GPCRs (Homo sapiens, UniProt O95977); settings: S1PR4; C21 5 µM
[2] = biological target: 318 nonolfactory human GPCRs (Homo sapiens, UniProt P21462); settings: FPR1; C21 5 µM
[3] = biological target: 318 nonolfactory human GPCRs (Homo sapiens, UniProt P25021); settings: HRH2; C21 5 µM
Sequence of 318 nonolfactory human GPCRs (Homo sapiens, UniProt P25021) (P25021 whole entry): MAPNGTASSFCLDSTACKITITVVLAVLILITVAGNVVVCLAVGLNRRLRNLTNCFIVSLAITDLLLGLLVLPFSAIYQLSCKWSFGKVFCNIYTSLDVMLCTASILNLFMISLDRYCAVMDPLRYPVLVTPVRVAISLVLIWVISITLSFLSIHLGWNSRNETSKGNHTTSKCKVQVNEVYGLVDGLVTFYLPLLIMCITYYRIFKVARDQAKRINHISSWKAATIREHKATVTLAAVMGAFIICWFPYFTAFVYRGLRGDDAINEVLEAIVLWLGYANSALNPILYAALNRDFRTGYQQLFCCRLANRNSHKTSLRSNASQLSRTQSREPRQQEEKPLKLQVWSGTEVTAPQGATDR

[4] = biological target: T1, 318 nonolfactory human GPCRs (Homo sapiens, UniProt P25101); settings: EDNRA; C21 5 µM
T1 construct: expressed in transfected cells; host or cells: HTLA cells, transient

[5] = biological target: T2, 318 nonolfactory human GPCRs (Homo sapiens, UniProt P28222); settings: HTR1B; C21 5 µM
T2 construct: expressed in transfected cells; host or cells: HTLA cells, transient

[6] = biological target: T3, 318 nonolfactory human GPCRs (Homo sapiens, UniProt P28336); settings: NMBR; C21 5 µM
T3 construct: expressed in transfected cells; host or cells: HTLA cells, transient

[7] = biological target: T4, 318 nonolfactory human GPCRs (Homo sapiens, UniProt P30939); settings: HTR1F; C21 5 µM
T4 construct: expressed in transfected cells; host or cells: HTLA cells, transient
T4 sequence (P30939 whole entry): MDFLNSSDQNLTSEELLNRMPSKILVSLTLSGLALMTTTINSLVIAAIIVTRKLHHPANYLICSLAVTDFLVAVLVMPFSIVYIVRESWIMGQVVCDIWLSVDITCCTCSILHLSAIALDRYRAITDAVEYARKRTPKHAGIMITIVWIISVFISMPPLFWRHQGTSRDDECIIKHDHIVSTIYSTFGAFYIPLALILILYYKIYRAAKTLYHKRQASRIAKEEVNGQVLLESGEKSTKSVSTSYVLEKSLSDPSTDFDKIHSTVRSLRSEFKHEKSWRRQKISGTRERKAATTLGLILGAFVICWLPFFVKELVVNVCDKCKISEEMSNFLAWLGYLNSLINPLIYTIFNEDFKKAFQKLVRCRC

[8] = biological target: 318 nonolfactory human GPCRs (Homo sapiens, UniProt P31391); settings: SSTR4; C21 5 µM
Sequence of 318 nonolfactory human GPCRs (Homo sapiens, UniProt P31391) (P31391 whole entry): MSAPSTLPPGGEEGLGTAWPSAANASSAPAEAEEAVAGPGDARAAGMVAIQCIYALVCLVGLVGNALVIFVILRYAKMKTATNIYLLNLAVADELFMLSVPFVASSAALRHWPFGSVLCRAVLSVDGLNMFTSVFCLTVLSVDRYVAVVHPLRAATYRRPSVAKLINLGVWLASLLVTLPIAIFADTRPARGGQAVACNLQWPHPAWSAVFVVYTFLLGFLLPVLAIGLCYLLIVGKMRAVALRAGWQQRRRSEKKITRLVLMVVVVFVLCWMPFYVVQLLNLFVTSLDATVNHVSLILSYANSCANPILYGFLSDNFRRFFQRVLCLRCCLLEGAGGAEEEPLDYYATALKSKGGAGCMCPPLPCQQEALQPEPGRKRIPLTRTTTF

[9] = biological target: T5, 318 nonolfactory human GPCRs (Homo sapiens, UniProt P32241); settings: VIPR1; C21 5 µM
T5 construct: expressed in transfected cells; host or cells: HTLA cells, transient
T5 sequence (P32241 31-457): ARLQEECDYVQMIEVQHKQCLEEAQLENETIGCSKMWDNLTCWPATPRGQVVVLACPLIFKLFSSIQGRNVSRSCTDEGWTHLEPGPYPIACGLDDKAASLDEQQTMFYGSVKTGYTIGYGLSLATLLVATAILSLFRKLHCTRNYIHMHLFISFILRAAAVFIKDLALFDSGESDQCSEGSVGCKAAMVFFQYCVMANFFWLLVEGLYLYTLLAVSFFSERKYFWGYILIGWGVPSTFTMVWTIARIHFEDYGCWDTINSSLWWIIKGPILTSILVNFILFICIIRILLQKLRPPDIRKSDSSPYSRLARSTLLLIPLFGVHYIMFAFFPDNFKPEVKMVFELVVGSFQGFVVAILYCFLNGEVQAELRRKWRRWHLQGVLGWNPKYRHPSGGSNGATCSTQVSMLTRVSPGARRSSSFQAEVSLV

[10] = biological target: T6, 318 nonolfactory human GPCRs (Homo sapiens, UniProt P32247); settings: BB3; C21 5 µM
T6 construct: expressed in transfected cells; host or cells: HTLA cells, transient

[11] = biological target: T7, 318 nonolfactory human GPCRs (Homo sapiens, UniProt P32302); settings: CXCR5; C21 5 µM
T7 construct: expressed in transfected cells; host or cells: HTLA cells, transient

[12] = biological target: T8, 318 nonolfactory human GPCRs (Homo sapiens, UniProt P34995); settings: PTGER1; C21 5 µM
T8 construct: expressed in transfected cells; host or cells: HTLA cells, transient

[13] = biological target: T9, 318 nonolfactory human GPCRs (Homo sapiens, UniProt P35368); settings: ADRA1B; C21 5 µM
T9 construct: expressed in transfected cells; host or cells: HTLA cells, transient

[14] = biological target: 318 nonolfactory human GPCRs (Homo sapiens, UniProt P41595); settings: HTR2B; C21 5 µM
[15] = biological target: T10, 318 nonolfactory human GPCRs (Homo sapiens, UniProt P46095); settings: GPR6; C21 5 µM
T10 construct: expressed in transfected cells; host or cells: HTLA cells, transient

[16] = biological target: T11, 318 nonolfactory human GPCRs (Homo sapiens, UniProt P47775); settings: GPR12; C21 5 µM
T11 construct: expressed in transfected cells; host or cells: HTLA cells, transient
T11 sequence (P47775 whole entry): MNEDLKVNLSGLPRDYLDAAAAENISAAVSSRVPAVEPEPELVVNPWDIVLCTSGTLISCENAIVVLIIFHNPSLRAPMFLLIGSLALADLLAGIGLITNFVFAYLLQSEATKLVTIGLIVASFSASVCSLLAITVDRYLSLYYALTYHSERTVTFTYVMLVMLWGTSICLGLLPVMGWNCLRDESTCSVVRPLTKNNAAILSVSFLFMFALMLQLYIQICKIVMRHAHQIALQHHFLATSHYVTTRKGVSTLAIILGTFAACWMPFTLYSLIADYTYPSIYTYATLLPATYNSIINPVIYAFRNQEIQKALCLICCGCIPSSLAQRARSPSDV

[17] = biological target: 318 nonolfactory human GPCRs (Homo sapiens, UniProt P47872); settings: SCTR; C21 5 µM
[18] = biological target: T12, 318 nonolfactory human GPCRs (Homo sapiens, UniProt P51582); settings: P2RY4; C21 5 µM
T12 construct: expressed in transfected cells; host or cells: HTLA cells, transient

[19] = biological target: T13, 318 nonolfactory human GPCRs (Homo sapiens, UniProt Q01718); settings: MC2R; C21 5 µM
T13 construct: expressed in transfected cells; host or cells: HTLA cells, transient

[20] = biological target: 318 nonolfactory human GPCRs (Homo sapiens, UniProt Q13258); settings: PTGDR; C21 5 µM
[21] = biological target: T14, 318 nonolfactory human GPCRs (Homo sapiens, UniProt Q13585); settings: GPR50; C21 5 µM
T14 construct: expressed in transfected cells; host or cells: HTLA cells, transient
T14 sequence (Q13585 whole entry): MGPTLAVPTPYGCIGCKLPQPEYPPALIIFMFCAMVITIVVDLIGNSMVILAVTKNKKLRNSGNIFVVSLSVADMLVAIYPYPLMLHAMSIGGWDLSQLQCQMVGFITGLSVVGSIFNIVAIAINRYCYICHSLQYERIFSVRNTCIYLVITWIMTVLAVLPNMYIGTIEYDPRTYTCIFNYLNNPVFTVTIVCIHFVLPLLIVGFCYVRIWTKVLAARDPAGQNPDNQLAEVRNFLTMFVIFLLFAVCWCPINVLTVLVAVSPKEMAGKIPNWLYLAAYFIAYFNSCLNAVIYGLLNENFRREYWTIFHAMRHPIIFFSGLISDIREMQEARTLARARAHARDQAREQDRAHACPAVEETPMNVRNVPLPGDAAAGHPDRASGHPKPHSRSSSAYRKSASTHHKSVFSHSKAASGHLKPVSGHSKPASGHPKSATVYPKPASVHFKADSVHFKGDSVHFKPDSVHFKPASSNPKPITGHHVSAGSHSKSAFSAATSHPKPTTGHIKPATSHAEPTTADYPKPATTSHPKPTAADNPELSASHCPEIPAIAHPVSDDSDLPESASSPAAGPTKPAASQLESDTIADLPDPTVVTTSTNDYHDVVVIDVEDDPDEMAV

[22] = biological target: T15, 318 nonolfactory human GPCRs (Homo sapiens, UniProt Q16538); settings: GPR162; C21 5 µM
T15 construct: expressed in transfected cells; host or cells: HTLA cells, transient
T15 sequence (Q16538 whole entry): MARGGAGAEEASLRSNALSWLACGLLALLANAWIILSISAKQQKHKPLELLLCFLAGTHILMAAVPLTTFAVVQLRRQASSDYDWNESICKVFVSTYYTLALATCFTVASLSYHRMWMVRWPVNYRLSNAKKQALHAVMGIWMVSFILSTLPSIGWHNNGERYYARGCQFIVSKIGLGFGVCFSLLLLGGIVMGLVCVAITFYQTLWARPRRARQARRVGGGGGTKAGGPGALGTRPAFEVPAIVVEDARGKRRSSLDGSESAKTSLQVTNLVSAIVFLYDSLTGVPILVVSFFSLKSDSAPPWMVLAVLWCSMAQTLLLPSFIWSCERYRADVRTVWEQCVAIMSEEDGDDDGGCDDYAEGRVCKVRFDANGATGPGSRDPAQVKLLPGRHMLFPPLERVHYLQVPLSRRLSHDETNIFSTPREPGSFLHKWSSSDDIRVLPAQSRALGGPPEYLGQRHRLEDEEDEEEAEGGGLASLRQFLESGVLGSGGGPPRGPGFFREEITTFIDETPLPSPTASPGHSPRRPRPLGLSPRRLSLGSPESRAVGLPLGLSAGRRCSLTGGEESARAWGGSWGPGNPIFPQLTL

[23] = biological target: T16, 318 nonolfactory human GPCRs (Homo sapiens, UniProt Q6U736); settings: OPN5; C21 5 µM
T16 construct: expressed in transfected cells; host or cells: HTLA cells, transient

[24] = biological target: T17, 318 nonolfactory human GPCRs (Homo sapiens, UniProt Q86Y34); settings: GPR97; C21 5 µM
T17 construct: expressed in transfected cells; host or cells: HTLA cells, transient

[25] = biological target: T18, 318 nonolfactory human GPCRs (Homo sapiens, UniProt Q8IWK6); settings: GPR125; C21 5 µM
T18 construct: expressed in transfected cells; host or cells: HTLA cells, transient

[26] = biological target: 318 nonolfactory human GPCRs (Homo sapiens, UniProt Q8IYL9); settings: GPR65; C21 5 µM
[27] = biological target: T19, 318 nonolfactory human GPCRs (Homo sapiens, UniProt Q8IZP9); settings: GPR64; C21 5 µM
T19 construct: expressed in transfected cells; host or cells: HTLA cells, transient
T19 sequence (Q8IZP9 38-1017): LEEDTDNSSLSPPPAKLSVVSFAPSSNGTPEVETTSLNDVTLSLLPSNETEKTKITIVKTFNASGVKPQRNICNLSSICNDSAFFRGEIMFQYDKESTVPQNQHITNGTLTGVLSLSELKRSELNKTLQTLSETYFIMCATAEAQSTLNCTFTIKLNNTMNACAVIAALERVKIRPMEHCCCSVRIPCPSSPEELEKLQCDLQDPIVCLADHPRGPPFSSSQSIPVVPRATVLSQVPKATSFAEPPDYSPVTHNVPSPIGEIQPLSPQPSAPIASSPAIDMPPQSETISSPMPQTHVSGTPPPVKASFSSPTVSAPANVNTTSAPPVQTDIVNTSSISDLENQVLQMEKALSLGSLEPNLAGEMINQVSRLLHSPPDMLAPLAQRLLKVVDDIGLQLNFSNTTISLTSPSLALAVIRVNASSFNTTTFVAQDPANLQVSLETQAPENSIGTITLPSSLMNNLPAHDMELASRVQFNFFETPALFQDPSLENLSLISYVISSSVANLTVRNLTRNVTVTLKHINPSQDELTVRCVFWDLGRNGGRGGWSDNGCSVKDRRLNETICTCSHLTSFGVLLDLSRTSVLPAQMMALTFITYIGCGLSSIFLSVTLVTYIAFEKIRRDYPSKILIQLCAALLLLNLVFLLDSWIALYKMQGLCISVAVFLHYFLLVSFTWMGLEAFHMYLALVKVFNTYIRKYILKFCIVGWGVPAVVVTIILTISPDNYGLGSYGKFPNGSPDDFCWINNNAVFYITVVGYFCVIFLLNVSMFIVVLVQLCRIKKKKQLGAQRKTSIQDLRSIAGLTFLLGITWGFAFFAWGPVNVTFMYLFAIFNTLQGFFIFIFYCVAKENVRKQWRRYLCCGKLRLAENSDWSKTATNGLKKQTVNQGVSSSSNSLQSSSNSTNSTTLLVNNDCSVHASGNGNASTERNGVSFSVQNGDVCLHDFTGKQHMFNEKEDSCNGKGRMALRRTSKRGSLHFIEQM

[28] = biological target: T20, 318 nonolfactory human GPCRs (Homo sapiens, UniProt Q8TDU6); settings: GPBA; C21 5 µM
T20 construct: expressed in transfected cells; host or cells: HTLA cells, transient

[29] = biological target: T21, 318 nonolfactory human GPCRs (Homo sapiens, UniProt Q92633); settings: LPAR1; C21 5 µM
T21 construct: expressed in transfected cells; host or cells: HTLA cells, transient

[30] = biological target: T22, 318 nonolfactory human GPCRs (Homo sapiens, UniProt Q99677); settings: LPA4; C21 5 µM
T22 construct: expressed in transfected cells; host or cells: HTLA cells, transient
T22 sequence (Q99677 whole entry): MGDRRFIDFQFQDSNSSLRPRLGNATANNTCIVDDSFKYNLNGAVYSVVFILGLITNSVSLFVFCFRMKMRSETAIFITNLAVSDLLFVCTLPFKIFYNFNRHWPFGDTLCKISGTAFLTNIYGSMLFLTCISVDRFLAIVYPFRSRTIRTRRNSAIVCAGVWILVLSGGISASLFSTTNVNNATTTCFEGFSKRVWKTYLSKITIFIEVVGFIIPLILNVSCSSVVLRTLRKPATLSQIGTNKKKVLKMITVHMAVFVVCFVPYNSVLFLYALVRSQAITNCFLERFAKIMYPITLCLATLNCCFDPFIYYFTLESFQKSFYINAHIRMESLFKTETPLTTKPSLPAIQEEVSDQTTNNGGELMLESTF

[31] = biological target: T23, 318 nonolfactory human GPCRs (Homo sapiens, UniProt Q9BXC1); settings: GPR174; C21 5 µM
T23 construct: expressed in transfected cells; host or cells: HTLA cells, transient

[32] = biological target: T24, 318 nonolfactory human GPCRs (Homo sapiens, UniProt Q9BZJ7); settings: GPR62; C21 5 µM
T24 construct: expressed in transfected cells; host or cells: HTLA cells, transient

[33] = biological target: T25, 318 nonolfactory human GPCRs (Homo sapiens, UniProt Q9P1P5); settings: TAAR2; C21 5 µM
T25 construct: expressed in transfected cells; host or cells: HTLA cells, transient

[34] = biological target: T26, 318 nonolfactory human GPCRs (Homo sapiens, UniProt Q9Y5N1); settings: HRH3; C21 5 µM
T26 construct: expressed in transfected cells; host or cells: HTLA cells, transient

Sequence of 318 nonolfactory human GPCRs (Homo sapiens, UniProt O95977) (O95977 whole entry): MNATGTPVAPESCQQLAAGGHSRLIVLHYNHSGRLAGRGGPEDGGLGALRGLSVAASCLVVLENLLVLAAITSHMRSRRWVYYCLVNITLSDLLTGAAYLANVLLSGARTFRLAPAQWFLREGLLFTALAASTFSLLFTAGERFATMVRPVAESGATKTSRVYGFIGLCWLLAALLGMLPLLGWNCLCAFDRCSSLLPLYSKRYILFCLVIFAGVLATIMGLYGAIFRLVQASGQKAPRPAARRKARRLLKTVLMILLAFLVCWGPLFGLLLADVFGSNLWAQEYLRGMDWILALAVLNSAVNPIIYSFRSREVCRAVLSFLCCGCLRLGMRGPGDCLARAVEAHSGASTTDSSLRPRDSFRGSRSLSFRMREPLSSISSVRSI

Question: How did the “FOLD OVER BASAL” value [1] turn out when `c1ccc2c(c1)N=C(N1CCNCC1)c1ccccc1N2` [C21, 11-(1-piperazinyl)-5H-dibenzo[b,e][1,4]diazepine] was run?
Answer: 1.3 fold and 1 fold and 0.7 fold and 1.1 fold

Question: And the “FOLD OVER BASAL” value [2]?
Answer: 0.9 fold and 0.7 fold and 0.6 fold

Question: What about the “FOLD OVER BASAL” value [3] of the same compound?
Answer: 1.7 fold and 1.4 fold and 1.6 fold and 1.3 fold

Question: What about the “FOLD OVER BASAL” value [4] of the same compound?
Answer: 0.8 fold and 1.4 fold and 0.9 fold

Question: And the “FOLD OVER BASAL” value [5]?
Answer: 0.7 fold and 0.8 fold and 0.9 fold

Question: And the “FOLD OVER BASAL” value [6]?
Answer: 1 fold and 0.6 fold and 0.8 fold

Question: And the “FOLD OVER BASAL” value [7]?
Answer: 1.1 fold and 1 fold and 0.8 fold

Question: What about the “FOLD OVER BASAL” value [8] of the same compound?
Answer: 1.7 fold and 1.4 fold and 1.2 fold and 1.1 fold

Question: What about the “FOLD OVER BASAL” value [9] of the same compound?
Answer: 0.6 fold and 0.9 fold and 0.8 fold

Question: What about the “FOLD OVER BASAL” value [10] of the same compound?
Answer: 0.9 fold and 1.3 fold and 1 fold

Question: What about the “FOLD OVER BASAL” value [11] of the same compound?
Answer: 0.9 fold and 1.3 fold and 1.2 fold

Question: What about the “FOLD OVER BASAL” value [12] of the same compound?
Answer: 0.9 fold and 1 fold and 1.6 fold and 0.8 fold

Question: What about the “FOLD OVER BASAL” value [13] of the same compound?
Answer: 1 fold and 0.8 fold and 1.1 fold and 0.7 fold

Question: And the “FOLD OVER BASAL” value [14]?
Answer: 0.3 fold and 0.2 fold

Question: What about the “FOLD OVER BASAL” value [15] of the same compound?
Answer: 0.9 fold and 1.3 fold and 1 fold and 1.2 fold

Question: And the “FOLD OVER BASAL” value [16]?
Answer: 0.5 fold and 0.7 fold and 0.6 fold

Question: What about the “FOLD OVER BASAL” value [17] of the same compound?
Answer: 0.9 fold and 1 fold

Question: What about the “FOLD OVER BASAL” value [18] of the same compound?
Answer: 1 fold and 0.9 fold

Question: And the “FOLD OVER BASAL” value [19]?
Answer: 1.1 fold and 0.6 fold and 0.7 fold

Question: And the “FOLD OVER BASAL” value [20]?
Answer: 1.3 fold and 1.5 fold and 1 fold and 1.4 fold

Question: What about the “FOLD OVER BASAL” value [21] of the same compound?
Answer: 0.6 fold and 0.7 fold and 0.5 fold and 0.9 fold

Question: What about the “FOLD OVER BASAL” value [22] of the same compound?
Answer: 0.6 fold and 0.7 fold and 0.9 fold

Question: What about the “FOLD OVER BASAL” value [23] of the same compound?
Answer: 1.2 fold and 1.3 fold and 0.9 fold

Question: And the “FOLD OVER BASAL” value [24]?
Answer: 0.6 fold and 0.5 fold and 0.7 fold

Question: What about the “FOLD OVER BASAL” value [25] of the same compound?
Answer: 0.5 fold and 0.8 fold and 1 fold and 0.9 fold

Question: And the “FOLD OVER BASAL” value [26]?
Answer: 0.8 fold and 0.5 fold

Question: And the “FOLD OVER BASAL” value [27]?
Answer: 0.6 fold and 0.7 fold and 0.8 fold

Question: What about the “FOLD OVER BASAL” value [28] of the same compound?
Answer: 1.1 fold and 1 fold and 1.2 fold

Question: And the “FOLD OVER BASAL” value [29]?
Answer: 1 fold and 0.8 fold

Question: And the “FOLD OVER BASAL” value [30]?
Answer: 1.2 fold and 1.1 fold and 0.8 fold

Question: What about the “FOLD OVER BASAL” value [31] of the same compound?
Answer: 0.6 fold and 0.9 fold and 0.5 fold

Question: And the “FOLD OVER BASAL” value [32]?
Answer: 0.8 fold and 0.5 fold and 0.9 fold

Question: What about the “FOLD OVER BASAL” value [33] of the same compound?
Answer: 1.1 fold and 1 fold and 0.7 fold and 0.9 fold

Question: What about the “FOLD OVER BASAL” value [34] of the same compound?
Answer: 1.3 fold and 0.9 fold and 0.8 fold
